This is an account of results in PubChem BioAssay AID248 (DTP/NCI, 2004).

The assay concerns L1210 leukemia ip in BDF1 mice, survival T/C. The experiment in a line: NCI In Vivo Anticancer Drug Screen. Data for tumor model L1210 Leukemia (intraperitoneal) in B6D2F1 (BDF1) mice. As to conditions: endpoint: mean survival time, higher = longer survival. Summed up:
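Ratio derived from survival: compound-dosed mice over vehicle-dosed mice, all bearing a transplantable tumor.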

Setting [1] is: dose: 50.0 mg/kg/injection, schedule: Q01DX009 (ip), vehicle: saline with Tween-80.
The mark [2] stands for this setting: dose: 100.0 mg/kg/injection, schedule: Q01DX009 (ip), vehicle: saline with Tween-80.
[3] abbreviates: dose: 200.0 mg/kg/injection, schedule: Q01DX009 (ip), vehicle: saline with Tween-80.
The mark [4] stands for this setting: dose: 50.0 mg/kg/injection, schedule: Q04DX002 (ip), vehicle: Klucel (hydroxypropylcellulose) (HPC).
Where [5] appears, read: dose: 100.0 mg/kg/injection, schedule: Q04DX002 (ip), vehicle: Klucel (hydroxypropylcellulose) (HPC).
Setting [6] is: dose: 200.0 mg/kg/injection, schedule: Q04DX002 (ip), vehicle: Klucel (hydroxypropylcellulose) (HPC).
Where [7] appears, read: dose: 400.0 mg/kg/injection, schedule: Q04DX002 (ip), vehicle: Klucel (hydroxypropylcellulose) (HPC).
Setting [8] is: dose: 100.0 mg/kg/injection, schedule: Q04DX003 (ip), vehicle: saline.
[9] abbreviates: dose: 200.0 mg/kg/injection, schedule: Q04DX003 (ip), vehicle: saline.
Setting [10] is: dose: 400.0 mg/kg/injection, schedule: Q04DX003 (ip), vehicle: saline.
Where [11] appears, read: dose: 100.0 mg/kg/injection, schedule: Q01DX001 (ip), vehicle: carboxymethylcellulose (CMC).
[12] abbreviates: dose: 200.0 mg/kg/injection, schedule: Q01DX001 (ip), vehicle: carboxymethylcellulose (CMC).
Setting [13] is: dose: 400.0 mg/kg/injection, schedule: Q01DX001 (ip), vehicle: carboxymethylcellulose (CMC).
Setting [14] is: dose: 100.0 mg/kg/injection, schedule: Q01DX001 (ip), vehicle: saline with Tween-80.
[15] abbreviates: dose: 50.0 mg/kg/injection, schedule: Q01DX001 (ip), vehicle: saline.
[16] abbreviates: dose: 100.0 mg/kg/injection, schedule: Q01DX001 (ip), vehicle: saline.
[17] abbreviates: dose: 200.0 mg/kg/injection, schedule: Q01DX001 (ip), vehicle: saline.
[18] abbreviates: dose: 400.0 mg/kg/injection, schedule: Q01DX001 (ip), vehicle: saline.

Structures are written as SMILES. “And” between values parts separate entries of the source, which are not always exact repeats. Equal entries are not always repeated. Inconclusive results and toxic doses are left out. Peptide text beside a SMILES is read from it. * marks the point of attachment. CH2Cl = ClC*

`Cc1cc(C(=O)c2ccccn2)c2cccc(C(F)(F)F)c2n1`: the T/C under setting [1] was 94 % of control; the T/C under setting [2] is 102 % of control; the T/C (dose: 100.0 mg/kg/injection, schedule: Q04DX003 (ip), vehicle: saline with Tween-80) was 92 % of control; the T/C under setting [3] is 100 % of control; the T/C (dose: 200.0 mg/kg/injection, schedule: Q04DX003 (ip), vehicle: saline with Tween-80) was 88 % of control.

As for `CC1=N/C(=C/c2ccc([N+](=O)[O-])s2)C(=O)O1`, the T/C by setting is: under setting [4], 112 % of control; under setting [5], 97 % of control; under setting [6], 95 % of control and 115 % of control; under setting [7], 98 % of control.

Regarding `O=C(Nc1cccs1)c1ccccc1`, the T/C under setting [8] is 97 % of control, the T/C under setting [9] is 93 % of control and the T/C under setting [10] was 95 % of control.

On to `O=C(N/N=C/c1ccc(Cl)cc1Cl)C(O)(c1ccccc1)c1ccccc1`, for which the T/C runs as follows: under setting [11], 111 % of control; under setting [12], 101 % of control; under setting [13], 92 % of control.

Regarding `NNC(=O)C(Oc1ccccc1Cl)c1ccccc1` (centres undefined), the T/C under setting [11] was 105 % of control, the T/C under setting [12] is 97 % of control and the T/C under setting [13] was 105 % of control.

Take `Cc1nn(-c2ccc(Cl)cc2)c(C)c1N=O`: the T/C is, setting by setting: (dose: 25.0 mg/kg/injection, schedule: Q01DX001 (ip), vehicle: saline with Tween-80) 98 % of control; (dose: 50.0 mg/kg/injection, schedule: Q01DX001 (ip), vehicle: saline with Tween-80) 95 % of control; under setting [14], 104 % of control.

With `CCOC(=O)CCC(NC(=O)c1ccc2c(c1)CCCN2C=O)C(=O)OCC` (centres undefined), the T/C is, setting by setting: (dose: 100.0 mg/kg/injection, schedule: Q04DX003 (ip), vehicle: Klucel (hydroxypropylcellulose) (HPC)) 104 % of control; (dose: 200.0 mg/kg/injection, schedule: Q04DX003 (ip), vehicle: Klucel (hydroxypropylcellulose) (HPC)) 103 % of control; (dose: 400.0 mg/kg/injection, schedule: Q04DX003 (ip), vehicle: Klucel (hydroxypropylcellulose) (HPC)) 103 % of control.

In the case of `CCCCCOc1ccc(Nc2c3ccccc3nc3ccccc23)cc1`, the T/C (dose: 100.0 mg/kg/injection, schedule: Q01DX001 (ip), vehicle: Klucel (hydroxypropylcellulose) (HPC)) is 102 % of control; the T/C (dose: 200.0 mg/kg/injection, schedule: Q01DX001 (ip), vehicle: Klucel (hydroxypropylcellulose) (HPC)) is 111 % of control; the T/C (dose: 400.0 mg/kg/injection, schedule: Q01DX001 (ip), vehicle: Klucel (hydroxypropylcellulose) (HPC)) was 107 % of control.

As for `CCCCCCCCCCCCCCCC[N+](C)(C)CCCCCCCCCCCCCCCC`, the T/C (dose: 3.12 mg/kg/injection, schedule: Q03DX003 (ip), vehicle: saline with Tween-80) was 103 % of control; the T/C (dose: 6.25 mg/kg/injection, schedule: Q03DX003 (ip), vehicle: saline with Tween-80) is 100 % of control; the T/C (dose: 12.5 mg/kg/injection, schedule: Q03DX003 (ip), vehicle: saline with Tween-80) is 103 % of control; the T/C (dose: 12.5 mg/kg/injection, schedule: Q04DX003 (ip), vehicle: saline with Tween-80) was 93 % of control.

Consider `COC1OC(COC(c2ccccc2)(c2ccccc2)c2ccccc2)C(OC(=S)SCc2ccccc2)C(OC)C1OC` (centres undefined), for which the T/C is, setting by setting: (dose: 25.0 mg/kg/injection, schedule: Q04DX002 (ip), vehicle: Klucel (hydroxypropylcellulose) (HPC)) 108 % of control; under setting [4], 104 % of control; under setting [5], 104 % of control.

Consider `CC(=O)Nc1ccc(Cc2ccc(NC(C)=O)cc2[N+](=O)[O-])c([N+](=O)[O-])c1`, for which the T/C reads like this: under setting [11], 105 % of control; under setting [12], 100 % of control; under setting [13], 93 % of control.

For the molecule `O=C1/C(=C\c2ccc(O)cc2)Oc2cc(O)ccc21`, the T/C under setting [14] was 98 % of control; the T/C (dose: 200.0 mg/kg/injection, schedule: Q01DX001 (ip), vehicle: saline with Tween-80) is 87 % of control; the T/C (dose: 400.0 mg/kg/injection, schedule: Q01DX001 (ip), vehicle: saline with Tween-80) is 90 % of control.

As for `NC(=O)N1C(=O)C2C3C=CC(O3)C2C1=O` (centres undefined), the T/C was 96 % of control (dose: 100.0 mg/kg/injection, schedule: Q01DX009 (ip), vehicle: saline); 98 % of control under setting [8]; 95 % of control (dose: 200.0 mg/kg/injection, schedule: Q01DX009 (ip), vehicle: saline); 101 % of control under setting [9]; 101 % of control under setting [10].

In the case of `O=S1(=O)Cc2ccccc2-c2ccccc2C1`, the T/C is, setting by setting: (dose: 100.0 mg/kg/injection, schedule: Q04DX002 (ip), vehicle: gum acacia) 103 % of control; (dose: 200.0 mg/kg/injection, schedule: Q04DX002 (ip), vehicle: gum acacia) 103 % of control; (dose: 400.0 mg/kg/injection, schedule: Q04DX002 (ip), vehicle: gum acacia) 106 % of control.

On to `CN1NCc2cncnc21`, for which the T/C was 97 % of control under setting [15], 103 % of control under setting [16], 101 % of control under setting [17] and 103 % of control under setting [18].

For `CC(=O)Nc1c(I)cc2c(c1I)Cc1cc([N+](=O)[O-])ccc1-2`, the T/C by setting is: under setting [11], 98 % of control; under setting [12], 104 % of control; under setting [13], 93 % of control.

`COc1cc(CC(=O)O)ccc1OCc1ccccc1`: the T/C was 101 % of control under setting [2]; 101 % of control under setting [3]; 116 % of control (dose: 400.0 mg/kg/injection, schedule: Q01DX009 (ip), vehicle: saline with Tween-80).

For `O=C/C=C/c1cccc([N+](=O)[O-])c1`, the T/C under setting [15] was 102 % of control, the T/C under setting [16] is 107 % of control and the T/C under setting [17] is 111 % of control.

With `CCCCCCNC(N)=O`, the T/C is 93 % of control and 100 % of control under setting [1]; 100 % of control and 101 % of control under setting [2]; 100 % of control and 101 % of control under setting [3].

On to `CC(=O)NC(CC(C)C)C(=O)NC(Cc1ccccc1)C(=O)CCl` (stereo not drawn) (Ac-Leu-Phe-CH2Cl; configuration not given here), for which the T/C was 94 % of control under setting [5], 98 % of control under setting [6] and 102 % of control under setting [7].

Regarding `OCCCc1ccccc1O`, the T/C reads like this: under setting [15], 102 % of control; under setting [16], 102 % of control; under setting [17], 94 % of control; under setting [18], 91 % of control.

For the molecule `N#CCCN1CCCCCC1`, the T/C reads like this: (dose: 15.0 mg/kg/injection, schedule: Q01DX009 (ip), vehicle: saline with Tween-80) 98 % of control; (dose: 30.0 mg/kg/injection, schedule: Q01DX009 (ip), vehicle: saline with Tween-80) 95 % of control; (dose: 30.0 mg/kg/injection, schedule: Q04DX003 (ip), vehicle: saline with Tween-80) 92 % of control; (dose: 60.0 mg/kg/injection, schedule: Q01DX009 (ip), vehicle: saline with Tween-80) 104 % of control; (dose: 60.0 mg/kg/injection, schedule: Q04DX003 (ip), vehicle: saline with Tween-80) 109 % of control.

Take `CCOC(=O)c1ccc(NC(=O)N(CCCl)N=O)cc1`: the T/C was 215 % of control (dose: 9.0 mg/kg/injection, schedule: Q01DX001 (ip), vehicle: carboxymethylcellulose (CMC)) and 157 % of control (dose: 18.7 mg/kg/injection, schedule: Q01DX001 (ip), vehicle: carboxymethylcellulose (CMC)).

For `Nc1ccc(N)c(N)n1`, the T/C (dose: 6.25 mg/kg/injection, schedule: Q04DX003 (ip), vehicle: saline) is 95 % of control; the T/C (dose: 12.5 mg/kg/injection, schedule: Q04DX003 (ip), vehicle: saline) is 97 % of control; the T/C (dose: 15.0 mg/kg/injection, schedule: Q01DX001 (ip), vehicle: saline) is 107 % of control; the T/C (dose: 25.0 mg/kg/injection, schedule: Q04DX003 (ip), vehicle: saline) is 97 % of control; the T/C (dose: 30.0 mg/kg/injection, schedule: Q01DX001 (ip), vehicle: saline) is 107 % of control; the T/C (dose: 60.0 mg/kg/injection, schedule: Q01DX001 (ip), vehicle: saline) was 97 % of control.
